Patent US6673566B1 (priority 2002, dated 2004)
“Also recorded” adds a separate entry of the source.

Key:
[1] = tested on: white-tailed deer adherent peripheral blood mononuclear cells; assay: Nitrite production (Griess reaction) by white-tailed deer monocyte-derived macrophages stimulated with M. haemolytica LPS; format: cell-based; conditions: cells stimulated with LPS in the presence of L-NMMA (1.15 mM)
Method: Monocytes were isolated from buffy coat fractions of peripheral blood of non-infected deer by adherence in 25 cm^2 flasks at 37° C. for 1 hr. Cells were cultured for 2 wk at 37° C. with 5% CO2 in RPMI 1640 (Gibco, Invitrogen Life Technologies, Frederick, Md., USA) supplemented with L-glutamine, penicillin, streptomycin, 2-ME, 10% heat-inactivated fetal calf serum, and 10% heat-inactivated white-tailed deer serum. Medium was changed every 3-4 days during the culture period. […]
Nitrite is the stable oxidation product of NO and the amount of nitrite within culture supernatants is indicative of the amount of NO produced by cells in culture. Nitrite was measured using the Griess reaction (Rajaraman et al., 1998, Effect of vitamins A and E on nitric oxide production by blood mononuclear leukocytes from neonatal calves fed milk replacer, Journal of Dairy Science, 81:3,278-3,285) performed in 96-well microtiter plates (Immunolon 2, Dynatech Laboratories, Inc., Chantilly, Va., USA). […] Absorbencies of test and standard samples at 550 nm were measured using an automated ELISA plate reader (Molecular Devices, Menlo Park, Calif., USA). […]
Data were analyzed by one-way analysis of variance followed by Tukey-Kramer multiple comparisons test. […]

[2] = tested on: PBMC from Mycobacterium bovis-infected white-tailed deer; format: cell-based

`CNC(=N)NCCC[C@H](N)C(=O)O` [L-NMMA, N^G-monomethyl-L-arginine] was tested, and the “Nitrite levels versus non-stimulated cultures” value [1] was “did not differ” and the “Effect of L-NMMA on antigen-stimulated nitrite production” value [2] was “inhibited; also recorded: ablated this response; also recorded: abrogated”.
